For 11 compounds, IC50 results are on record in patent publication US9540392B2, “Thienopyrimidines” (BAYER PHARMA AKTIENGESELLSCHAFT, priority 2012, dated 2017).

For the experiment, the target named is T1, human full-length MKNK1 (Homo sapiens, UniProt Q9BUB5, T385D).
T1 construct: GST (N); purchased Carna Biosciences 02-145; host or cells: insect cells (baculovirus expression system)
T1 sequence (Q9BUB5 1-424 isoform Q9BUB5-2 T344D): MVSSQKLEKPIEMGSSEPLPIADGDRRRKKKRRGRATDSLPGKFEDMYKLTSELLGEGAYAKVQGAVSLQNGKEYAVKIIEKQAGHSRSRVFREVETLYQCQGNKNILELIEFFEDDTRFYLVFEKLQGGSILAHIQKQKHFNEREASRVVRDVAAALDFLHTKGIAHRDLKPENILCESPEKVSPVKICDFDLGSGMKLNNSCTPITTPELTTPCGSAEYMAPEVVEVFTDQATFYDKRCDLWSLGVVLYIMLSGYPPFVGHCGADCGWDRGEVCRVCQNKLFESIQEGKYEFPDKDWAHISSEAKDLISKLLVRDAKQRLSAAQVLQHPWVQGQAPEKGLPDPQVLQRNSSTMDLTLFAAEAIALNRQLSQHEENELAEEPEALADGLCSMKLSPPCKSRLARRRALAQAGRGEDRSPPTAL
Put plainly: MKNK1 kinase high ATP assay (TR-FRET). Format: biochemical. Particulars: 2 mM ATP, after preincubation with MKNK1; read-out: MKNK1 IC50 (MKNK1 high ATP). How it is done: MKNK1-inhibitory activity at high ATP of compounds of the present invention after their preincubation with MKNK1 was quantified employing the TR-FRET-based MKNK1 high ATP assay as described in the following paragraphs.
As substrate for the kinase reaction the biotinylated peptide biotin-Ahx-[…] (C-terminus in amide form) was used, which can be purchased e.g. from the company Biosyntan (Berlin-Buch, Germany).
For the assay 50 nL of a 100 fold concentrated solution of the test compound in DMSO was pipetted into a black low volume 384 well microtiter plate (Greiner Bio-One, Frickenhausen, Germany), 2 μL of a solution of MKNK1 in aqueous assay buffer [50 mM HEPES pH 7.5, 5 mM MgCl2, 1.0 mM dithiothreitol, 0.005% (v/v) Nonidet-P40 (Sigma)] was added and the mixture was incubated for 15 min at 22° C. to allow pre-binding of the test compounds to the enzyme before the start of the kinase reaction. Then the kinase reaction was started by the addition of 3 μL of a solution of adenosine-tri-phosphate (ATP, 3.3 mM=>final conc. in the 5 μL assay volume is 2 mM) and substrate (0.1 μM=>final conc. in the 5 μL assay volume is 0.06 μM) in assay buffer and the resulting mixture was incubated for a reaction time of 30 min at 22° C. The concentration of MKNK1 was adjusted depending of the activity of the enzyme lot and was chosen appropriate to have the assay in the linear range, typical concentrations were in the range of 0.003 μg/mL. The reaction was stopped by the addition of 5 μL of a solution of TR-FRET detection reagents (5 nM streptavidine-XL665 [Cisbio Bioassays, Codolet, France] and 1 nM anti-ribosomal protein S6 (pSer236)-antibody from Invitrogen [#44921G] and 1 nM LANCE EU-W1024 Labeled ProteinG [Perkin-Elmer, product no. AD0071]) in an aqueous EDTA-solution (100 mM EDTA, 0.1% (w/v) bovine serum albumin in 50 mM HEPES pH 7.5).
The resulting mixture was incubated for 1 h at 22° C. to allow the formation of complex between the phosphorylated biotinylated peptide and the detection reagents. Subsequently the amount of phosphorylated substrate was evaluated by measurement of the resonance energy transfer from the Eu-chelate to the streptavidine-XL. Therefore, the fluorescence emissions at 620 nm and 665 nm after excitation at 350 nm were measured in a TR-FRET reader, e.g. a Rubystar (BMG Labtechnologies, Offenburg, Germany) or a Viewlux (Perkin-Elmer). The ratio of the emissions at 665 nm and at 622 nm was taken as the measure for the amount of phosphorylated substrate.
(TR-FRET usually uses a lanthanide donor and a delayed reading to cut background.)
What is called IC50 is the concentration at which inhibition is half-maximal. On to `CN(C)C(=O)CN1CCN(C(=O)C2CCc3c(sc4ncnc(Nc5ccc6[nH]ncc6c5)c34)C2)CC1` (racemic) [Example 143, (RS)-2-(4-{[4-(1H-indazol-5-ylamino)-5,6,7,8-tetrahydro[1]benzothieno[2,3-d]pyrimidin-7-yl]carbonyl}piperazin-1-yl)-N,N-dimethylacetamide], for which the IC50 turned out to be 19.5 nM. As for `CC(C)Oc1cc2[nH]ncc2cc1Nc1ncnc2sc3c(c12)CCC(C(=O)N1CC2(COC2)C1)C3` (racemic) [Example 206, (RS)-2-Oxa-6-azaspiro[3.3]hept-6-yl(4-{[6-(propan-2-yloxy)-1H-indazol-5-yl]amino}-5,6,7,8-tetrahydro[1]benzothieno[2,3-d]pyrimidin-7-yl)methanone], the IC50 was determined as 1 nM.

As to `CC(C)Oc1cc2[nH]ncc2cc1Nc1ncnc2sc3c(c12)CCC(C(=O)N1CC2(CCO2)C1)C3` (racemic) [Example 259, (RS)-{4-[(6-Isopropoxy-1H-indazol-5-yl)amino]-5,6,7,8-tetrahydro[1]benzothieno[2,3-d]pyrimidin-7-yl}(1-oxa-6-azaspiro[3.3]hept-6-yl)methanone], the IC50 came out at 1.9 nM. Regarding `O=C(C1CCc2c(sc3ncnc(Nc4ccc5[nH]ncc5c4)c23)C1)N1CCN(C2CCCC2)CC1` (racemic) [Example 131, (RS)-(4-cyclopentylpiperazin-1-yl)[4-(1H-indazol-5-ylamino)-5,6,7,8-tetrahydro[1]benzothieno[2,3-d]pyrimidin-7-yl]methanone], the IC50 came out at 13.5 nM. On to `CCN(CCC#N)C(=O)C1CCc2c(sc3ncnc(Nc4ccc5[nH]ncc5c4)c23)C1` (racemic) [Example 190, (RS)-N-(2-cyanoethyl)-N-ethyl-4-(1H-indazol-5-ylamino)-5,6,7,8-tetrahydro[1]benzothieno[2,3-d]pyrimidine-7-carboxamide], for which the IC50 is 6 nM. Consider `O=C(C1CCc2c(sc3ncnc(Nc4ccc5[nH]ncc5c4)c23)C1)N1CCN(Cc2ccccn2)CC1` (racemic) [Example 154, (RS)-[4-(1H-indazol-5-ylamino)-5,6,7,8-tetrahydro[1]benzothieno[2,3-d]pyrimidin-7-yl][4-(pyridin-2-ylmethyl)piperazin-1-yl]methanone], for which the IC50 amounted to 28.8 nM. For the compound `N#Cc1ccc(N2CCN(C(=O)C3CCc4c(sc5ncnc(Nc6ccc7[nH]ncc7c6)c45)C3)CC2)cc1` (racemic) [Example 141, (RS)-4-(4-{[4-(1H-indazol-5-ylamino)-5,6,7,8-tetrahydro[1]benzothieno[2,3-d]pyrimidin-7-yl]carbonyl}piperazin-1-yl)benzonitrile], the IC50 came out at 17.4 nM. `COC(=O)C1CCc2c(sc3ncnc(Nc4ccc5[nH]ncc5c4)c23)C1` (racemic) [Example 73, (RS)-Methyl 4-(1H-indazol-5-ylamino)-5,6,7,8-tetrahydro[1]benzothieno[2,3-d]pyrimidine-7-carboxylate]: the IC50 was 8.9 nM. Then `O=C(C1CCc2c(sc3ncnc(Nc4ccc5[nH]ncc5c4)c23)C1)N1CC(N2CCCCC2)C1` (racemic) [Example 200, (RS)-[4-(1H-indazol-5-ylamino)-5,6,7,8-tetrahydro[1]benzothieno[2,3-d]pyrimidin-7-yl][3-(piperidin-1-yl)azetidin-1-yl]methanone], with 8.6 nM. As for `Cc1n[nH]c2ccc(Nc3ncnc4sc5c(c34)CCC(C(=O)O)C5)cc12` (racemic) [Example 62, (RS)-4-[(3-Methyl-1H-indazol-5-yl)amino]-5,6,7,8-tetrahydro[1]benzothieno[2,3-d]pyrimidine-7-carboxylic acid], the IC50 is 1420 nM. On to `O=C(C1CCc2c(sc3ncnc(Nc4ccc5[nH]ncc5c4)c23)C1)N1CCC(O)CC1` (racemic) [Example 85, (RS)-(4-hydroxypiperidin-1-yl)[4-(1H-indazol-5-ylamino)-5,6,7,8-tetrahydro[1]benzothieno[2,3-d]pyrimidin-7-yl]methanone], for which the half-maximal inhibitory concentration (IC50) came out at 11.7 nM.
